Tested on: MM.1S cells
Experiment: CellTiter-Glo cell viability assay
Type: cell-based, human
Details: for EC50: Homo sapiens, MM1.S, 72 h, n.e.: no effect (≤25 % effect up to 50 μM), read-out: EC50 MM.1S; for antiproliferative activity reduced compared to vorinostat by a factor: MM.1S cells
Procedure: For this purpose, the dilution series were prepared in 200-fold concentration in DMSO and further diluted to 10-fold concentration in medium. The final DMSO concentration was 0.5%. The toxicity of compounds was determined after 72 h using the CellTiter-Glo 2.0 Cell Viability Assay (Promega, Madison, WI, USA, #G9242) according to the manufacturer´s protocol. Subsequently, the luminescence was measured using a Tecan Spark (Tecan Group AG, Maennedorf, Swiss) and the half maximal effective concentration (EC50) was determined by plotting dose response curves and nonlinear regression with GraphPad Prism (GraphPad Software, San Diego, CA, USA). […] Cellular HDAC Inhibition Assay […] with minor changes. […] The DMSO-stock solutions were used to perform a serial dilution in DMSO. […] 10 µL of the substrate solution was added and incubated for 3 h under cell culture conditions. […] S8

| EC50 | Structure (SMILES) | antiproliferative activity reduced compared to vorinostat by a factor |
| --- | --- | --- |
| 8.6 ± 1.5 µM | O=CN(CCCCCCCCCCCC(=O)Nc1ccc(C(=O)NCCCCCCC(=O)NO)cc1)C(C(=O)NCc1ccccc1)c1ccc(Cl)c(Cl)c1 (centres unmarked) [Compound 1j-nc] | – |
| 2.8 ± 0.1 µM | O=C(CCCCCCNC(=O)c1ccc(NC(=O)CCCCCCCCCCCN(C(=O)CCl)C(C(=O)NCc2ccccc2)c2ccc(Cl)c(Cl)c2)cc1)NO (centres unmarked) [Compound 1j] | 3 – 6 |
| 1.5 ± 0.1 µM | O=C(CCCCCCNC(=O)c1ccc(N(C(=O)CCl)C(C(=O)NCc2ccccc2)c2ccc(Cl)c(Cl)c2)cc1)NO (centres unmarked) [Compound 2] | 3 – 6 |

— publication PMC12091851, “Replacing a Cereblon Ligand by a DDB1 and CUL4 Associated Factor 11 (DCAF11) Recruiter Converts a Selective Histone Deacetylase 6 PROTAC into a Pan‐Degrader” (Chemmedchem, 2025)
